Reference: patent US20160045505A1, “COMPOUNDS AND COMPOSITIONS FOR THE TREATMENT OF PARASITIC DISEASES” (NOVARTIS AG, priority 2013, published 2016)
Where two headings read alike, the source gives them in different places.

Experiments:
[1] = system: Leishmania donovani axenic amastigote parasites; test: Leishmania donovani axenic amastigote proliferation assay (Cell TiterGlo luminescence, 2 day incubation); assay type: cell-based; conditions: Leishmania donovani, read-out: L. donovani amastigotes EC50
[2] = system: L. donovani HU3 strain in mouse peritoneal macrophages; test: Assay for proliferation of Leishmania parasites in infected mouse peritoneal macrophages (SybrGreen staining, high-content imaging, 5 days); assay type: cell-based, Leishmania donovani; conditions: Leishmania donovani, Peritoneal macrophage, L. donovani in mouse peritoneal macrophages, read-out: L. donovani Macrophage EC50
[3] = system: Trypanosoma cruzi amastigotes (Tulahuen strain expressing Lac-Z) cultured in 3T3 fibroblast cells; test: microbe, parasite or virus in culture; assay type: cell-based; conditions: Trypanosoma cruzi, TULAHUEN, Fibroblast, T. cruzi amastigotes in 3T3 fibroblast cells, read-out: T cruzi EC50
[4] = axenic amastigotes, inhibition of proliferation

O=C(Nc1ccc(F)c(-c2cn3cc(OCC4CC4)cnc3n2)c1)N1CCCC1 [Compound 562, N-(3-(6-(cyclopropylmethoxy)imidazo[1,2-a]pyrimidin-2-yl)-4-fluorophenyl)pyrrolidine-1-carboxamide]
EC50 ([1]; L. donovani axenic amastigotes): 160 nM
EC50 [2]: 245 nM
EC50 [3]: 46 nM

CC(C)OC(=O)Nc1cnc2nc(-c3cc(NC(=O)N4CC(=O)C4)ccc3Cl)cn2c1 [Compound 279]
EC50 [1, 4]: 2440 nM
EC50 ([2]; inhibition of proliferation): 9590 nM
EC50 ([3]; inhibition of proliferation): > 17500 nM

Cc1nc(C)c(C(=O)Nc2ccc(F)c(-c3cn4cc(C5=CCOCC5)cnc4n3)c2)o1 [Compound 334]
EC50 [1, 4]: 52 nM
EC50 ([2]; inhibition of proliferation): 85 nM
EC50 ([3]; inhibition of proliferation): 64 nM

O=C(Nc1ccc(F)c(-c2cn3cc(-c4ccccn4)cnc3n2)c1)N1CCC1 [Compound 404]
EC50 ([1]; L. donovani axenic amastigotes): 11 nM
EC50 [2]: 34 nM
EC50 [3]: 17 nM

O=C(Nc1ccc(F)c(-c2cn3cc(-c4ccccc4Cl)cnc3n2)c1)N1CCCC1 [Compound 357]
EC50 [1, 4]: 88 nM
EC50 ([2]; inhibition of proliferation): 194 nM
EC50 ([3]; inhibition of proliferation): 15 nM

CC(C)OC(=O)Nc1cnc2nc(-c3cc(NC(=O)C4CCCO4)ccc3Cl)cn2c1 (stereo not drawn) [Compound 55]
EC50 [1, 4]: 7230 nM
EC50 ([2]; inhibition of proliferation): 27100 nM
EC50 ([3]; inhibition of proliferation): 4140 nM

CC(C)OC(=O)Nc1cnc2nc(-c3cc(NC(=O)N4CC(F)C4)ccc3Cl)cn2c1 [Compound 283]
EC50 [1, 4]: 244 nM
EC50 ([2]; inhibition of proliferation): 724 nM
EC50 ([3]; inhibition of proliferation): 1320 nM

Cc1nc(C)c(C(=O)Nc2ccc(F)c(-c3cn4cc(NC(=O)c5ccc(F)cn5)cnc4n3)c2)o1 [Compound 187]
EC50 [1, 4]: 31 nM
EC50 ([2]; inhibition of proliferation): > 50000 nM
EC50 ([3]; inhibition of proliferation): 142 nM

CC(C)OC(=O)Nc1cnc2nc(-c3cc(NC(=O)N4CCC(N5CCOCC5)C4)ccc3Cl)cn2c1 (stereo not drawn) [Compound 273]
EC50 [1, 4]: > 25000 nM
EC50 ([2]; inhibition of proliferation): > 50000 nM
EC50 ([3]; inhibition of proliferation): > 20000 nM

CC(C)OC(=O)Nc1ccc(F)c(-c2cn3cc(NC(=O)OC(C)C)cnc3n2)c1 [Compound 302]
EC50 [1, 4]: 305 nM
EC50 ([2]; inhibition of proliferation): 587 nM
EC50 ([3]; inhibition of proliferation): 134 nM

O=C(Nc1ccc(F)c(-c2cn3cc(-c4ccccc4)cnc3n2)c1)c1ccc(F)o1 [Compound 576, 5-fluoro-N-(4-fluoro-3-(6-phenylimidazo[1,2-a]pyrimidin-2-yl)phenyl)furan-2-carboxamide]
EC50 ([1]; L. donovani axenic amastigotes): 526 nM
EC50 [2]: 807 nM
EC50 [3]: 50 nM

O=C(Nc1ccc(F)c(-c2cn3cc(Nc4ncccc4C(F)(F)F)cnc3n2)c1)N1CCCC1 [Compound 191]
EC50 [1, 4]: 28 nM
EC50 ([2]; inhibition of proliferation): 143 nM
EC50 ([3]; inhibition of proliferation): 33 nM

CC(C)OC(=O)Nc1cnc2nc(-c3cc(NC(=O)c4cnc(C5CC5)o4)ccc3F)cn2c1 [Compound 108]
EC50 [1, 4]: 771 nM
EC50 ([2]; inhibition of proliferation): 2410 nM
EC50 ([3]; inhibition of proliferation): 1190 nM

CC(C)OC(=O)Nc1cnc2nc(-c3cc(NC(=O)N4CCCC4(C)C)ccc3Cl)cn2c1 [Compound 282]
EC50 [1, 4]: > 25000 nM
EC50 ([2]; inhibition of proliferation): 10100 nM
EC50 ([3]; inhibition of proliferation): 7350 nM

CC(C)OC(=O)Nc1cnc2nc(-c3cc(NC(=O)N4CCCC4)ccc3Cl)cn2c1 [Compound 2, propan-2-yl N-(2-{2-chloro-5-[(pyrrolidin-1-yl)carbonylamino]phenyl}imidazo[1,2-a]pyrimidin-6-yl)carbamate]
EC50 [1, 4]: 96 nM
EC50 ([2]; inhibition of proliferation): 268 nM
EC50 ([3]; inhibition of proliferation): 243 nM

CC(C)OC(=O)Nc1cnc2nc(-c3cc(NC(=O)NC4CC4)ccc3Cl)cn2c1 [Compound 285]
EC50 [1, 4]: 11700 nM
EC50 ([2]; inhibition of proliferation): 16100 nM
EC50 ([3]; inhibition of proliferation): 5020 nM

COc1cccnc1-c1cnc2nc(-c3cc(NC(=O)c4oc(C)nc4C)ccc3F)cn2c1 [Compound 459]
EC50 ([1]; L. donovani axenic amastigotes): 129 nM
EC50 [2]: 347 nM
EC50 [3]: 119 nM

O=C(Nc1ccc(F)c(-c2cn3cc(-n4cn[nH]c4=O)cnc3n2)c1)N1CCCC1 [Compound 534, N-(4-fluoro-3-(6-(5-oxo-1H-1,2,4-triazol-4(5H)-yl)imidazo[1,2-a]pyrimidin-2-yl)phenyl)pyrrolidine-1-carboxamide]
EC50 ([1]; L. donovani axenic amastigotes): > 23700 nM
EC50 [2]: > 50000 nM
EC50 [3]: > 20000 nM

Cc1nc(C)c(C(=O)Nc2ccc(F)c(-c3cn4cc(NC(C)C)cnc4n3)c2)o1 [Compound 481]
EC50 ([1]; L. donovani axenic amastigotes): 209 nM
EC50 [2]: 430 nM
EC50 [3]: 151 nM
